Laboratory results reported in US20160089377A1, “THERAPEUTIC TARGETING OF THE MTOR PATHWAY IN NEURODEVELOPMENTAL AND NEUROPSYCHIATRIC DISEASE” (THE TRUSTEES OF COLUMBIA UNIVERISTY IN THE CITY OF NEW YORK, priority 2013, published 2016).
Entries after “also recorded” stand apart in the source; their conditions may differ.

How the values were obtained:
[1] = test system: pyramidal cells of Cntnap2 (Caspr2) mutant mice; assay: Soma size quantitation of pyramidal cells after WYE125132 treatment; assay type: in vivo
Excerpt: In order to assess whether we could reverse or prevent the cellular abnormalities (i.e., enlarged pyramidal cell size), we treated with WYE125132 (‘Tx’ in FIG. 12) or vehicle (‘veh’ in FIG. 12) Caspr2^+/−/Thy1-YFP/H and Caspr2^−/−/Thy-1-YFP/H mice and WT littermates also positive for YFP/H for the entire period P12-P35. The mice were perfused and subsequently fixed with 4% PFA and sectioned coronally at 16 microns. Subsequently, 200× images were taken using an epifluorescent microscope of somatosensory and auditory cortex—a total of 15 images per animal/cortical region. The cell somata were traced on Photoshop to quantify pixels. We then converted the pixels to square microns. For the analysis listed here, Caspr2^+/−/Thy1-YFP/H and
Cntnap2 mutant and WT mice were obtained from heterozygous crossings and were born with the expected Mendelian frequencies. […]
WYE125132 (Chemscene) was administered by a daily p.o. gavaging in a volume of 10 ml/kg. […] For the two-photon and cell size quantitation studies, mice were gavaged from P12 to p35, after they were
Soma Size Quantitation. […]
perfused with PBS and then 4% PFA and subsequently post-fixed in 4% PFA for 1 hour at 4° C. […] Sections containing auditory and somatosensory cortices were analyzed. […] Soma size was determined by manually tracing pyramidal cell somata and measuring pixel number per selection. […] For each animal, 90 to 140 somata were measured. […]

[2] = test system: dendritic spines in the frontal association cortex; assay: In vivo transcranial two-photon microscopy of dendritic spine formation and elimination; design: species or system mice
Excerpt: In order to assess whether we could reverse or prevent the abnormalities in spine dynamics in Caspr2 mutants, we treated Caspr2^+/−/Thy1-YFP/H, Caspr2^−/−/Thy-1-YFP/H mice, and WT littermates also positive for YFP/H from P12-P32 with either WYE125132 or with vehicle. One-month old (P30±1) male mice were used in the experiments. Spine formation and elimination were examined by imaging the mouse cortex through a thinned-skull window as described previously. Briefly, 1-mo old male mice expressing YFP were anaesthetized with ketamine and xylazine (intraperitoneal; 20 mg/ml and 3 mg/ml, respectively, in saline; 6 μl per gram of body weight). Thinned-skull windows were made in head-fixed mice with high-speed microdrills. Skull thickness was reduced to about 20 μm. A twophoton microscope tuned to 920 nm (×60 water immersion lens; numerical aperture,1.1) was used to acquire images. For re-imaging of the same region, thinned regions were identified on the basis of the maps of the brain vasculature. Microsurgical blades were used to re-thin the region of interest until a clear image could be obtained. The area of the imaging region was 200 μm×200 μm in the frontal association cortex. The centers of the imaging regions were as follows: +2.8 mm bregma, +1.0 mm midline.
(§1) WYE125132 (Chemscene) was administered by a daily p.o. gavaging in a volume of 10 ml/kg. For all behavioral experiments, dams were treated from PO to P12 after which individual pups were gavaged on a daily basis going forward. Mice also received drug treatment on the days of testing, at least 1 hour prior the experiment. For the two-photon and cell size quantitation studies, mice were gavaged from P12 to p35, after they were
One-month-old (P30±1) male mice were used in the experiments. Spine formation and elimination were examined by imaging the mouse frontal association cortex through a thinned-skull window as described previously (Lai, 2012).
To examine whether we could reverse the abnormalities in dendritic spine dynamics in the frontal association cortex, we gavaged the mice daily from P12 to P32 with WYE125132 versus vehicle.

Cntnap2 mutant mice = assay: Social interaction test (10-minute interval) and grooming; assay type: in vivo
Procedure: Cntnap2 mutant and WT mice were obtained from heterozygous crossings and were born with the expected Mendelian frequencies. The three obtained genotypes were housed together. Mice were treated with p.o. gavaging once per day with either WYE125132 (10 mg/kg) or vehicle. All procedures involving animals were performed in accordance with the Columbia University/New York State Psychiatric Institute animal research committee.
as §1
Mice were marked with ear tagging. Experimenters were blinded to the genotype during testing. Behavioral tests were performed in the New York State Psychiatric Institute behavioral test core facility.
Detailed measurements of interaction between pairs of mice placed together in standard cages provide insights into reciprocal social interactions (Silverman et al., 2010). We examined (i) whether juvenile Cntnap2 mutant mice display decreased social interaction over a 10-minute interval and (ii) whether mutant mice have reduced tendency to approach novel social stimuli, as evidenced by social inhibition in the first minute of the tested interval (Curley et al., 2009). The first minute of this social interaction paradigm represents the phase when preference for social novelty is normally established. There were significant differences between genotypes in the amount of time spent on social investigation of the stimulus animal both in the first minute of the test (One-Way ANOVA F2,38=5.01, P<0.05; FIG. 15A) as well as over the entire 10-minute test (F2,38=3.27, P<0.05; FIG. 15A). Both Cntnap2^+/− and Cntnap2^−/− mice investigated the stimulus mouse for less time than their wild-type (WT) littermates (Dunnett post-hoc tests, all P<0.05).
Mutant mice were treated with WYE125132 or vehicle by daily gavaging.

Question: How did the “enlarged pyramidal cell soma size” value ([1]; Cntnap2+/- and Cntnap2-/- (Caspr2) mutant mice, daily p.o. gavage 10 mg/kg, P12 to P33-36 (about 3 weeks), 10 mg/kg) turn out when CNC(=O)Nc1ccc(-c2nc(N3CC4CCC(C3)O4)c3cnn(C4CCC5(CC4)OCCO5)c3n2)cc1 [WYE125132] was run?
Answer: completely reverses the enlarged pyramidal cell size; also recorded: complete reversal of the pyramidal cell enlargement phenotype; also recorded: entirely rescued

Question: What about the “soma size in WT animals” value ([1]; WT mice, compound versus vehicle) of the same compound?
Answer: no effect on soma size

Question: And the “spine formation (in words)” value ([2]; Caspr2+/-/Thy1-YFP/H mice, P12-P32, P<0.0058)?
Answer: increase in spine formation

Question: And the “spine elimination (in words)” value ([2]; Caspr2+/-/Thy1-YFP/H mice, P12-P32, versus vehicle, P<0.006)?
Answer: dramatic prevention of spine elimination

Question: And the “spine elimination (in words)” value ([2]; Caspr2-/-/Thy-1-YFP/H mice, P12-P32, versus vehicle, P<0.04)?
Answer: statistically significant prevention

Question: And the “rate of spine elimination” value ([2]; Cntnap2+/- mice gavaged daily P12 to P32 with WYE125132)?
Answer: 8.5%±2.0%

Question: And the “rate of spine elimination” value ([2]; Cntnap2-/- mice gavaged daily P12 to P32 with WYE125132)?
Answer: 9.5%±1.6%

Question: And the “spine elimination (in words)” value ([2]; both Cntnap2+/- and Cntnap2-/- mutant mice, P12 to P32)?
Answer: reduced back to levels seen in the WT littermates; also recorded: rescues excessive spine elimination

Question: And the “number (total frequency) of social interactions over the whole 10-minute interval” value (Cntnap2 mutant mice; Cntnap2+/- mice, daily gavage, P<0.05)?
Answer: rescued; also recorded: corrects

Question: What about the “social interaction deficits in the first minute of testing” value (Cntnap2 mutant mice; Cntnap2+/- mice, daily gavage, versus vehicle, P<0.01) of the same compound?
Answer: reversal of the social interaction deficits; also recorded: corrects the social interaction deficits

Question: And the “maximum grooming bout duration” value (Cntnap2 mutant mice; Cntnap2+/- mutant mice, WYE125132 versus vehicle, P<0.05)?
Answer: increased significantly

Question: What about the “time spent sniffing the stimulus mouse in the very first part of the test” value (Cntnap2 mutant mice; Cntnap2 mutant mice) of the same compound?
Answer: increases the time

Question: What about the “time spent sniffing the stimulus mouse in the very first part of the test” value (Cntnap2 mutant mice; WT littermates) of the same compound?
Answer: no such effect
